Results taken from US9539298B2, “Lissencephaly therapeutic agent” (OSAKA CITY UNIVERSITY, priority 2010, dated 2017).

Tested on: Lis1+/− cerebellar granule nerve cells
Assay: Migration capability of cerebellar granule nerve cells
Assay type: cell-based, mouse
Settings: 200 μM, 18-24 hours, FIG. 5
Description: Cerebellum tissue fragments of LIS1 gene hetero-deficient and wild-type mice (3-7 days after birth) (10 mice for each group) were crushed by gentle pipetting, and treated with 0.025% trypsin (Gibco, 25200)/0.0013% DNaseI (Sigma, DN-25) at 37° C. for 20 minutes. After centrifugation, a BME culture solution (Gibco, 21010) containing 10% equine blood serum was added for washing, and the reaction was stopped. Thereafter, the reaction liquid was subjected to pipetting by adding a BME culture solution containing 0.0052% DNaseI/10% equine blood serum, and filtered with a cell mesh-strainer (diameter=70 μm; Becton Dickinson). […]
After the incubation, the aggregates were washed with a phosphate buffer (PBS), and immobilized by 4% paraformaldehyde (Wako, 162-16065) (at room temperature, for 15 minutes). […] Thereafter, the aggregates were repeatedly washed well with PBS, and carefully embedded using glycerol (Merck) for fluorescence microscope observation so as to avoid damage.
After careful observation using a confocal laser microscope (TCS-SP5, Leica), the migratory distance (μm) of the nerve cells from the marginal zone of the cerebellum granule cell aggregates was measured for each cell group. […] Further, an average migratory distance (μm) was calculated and expressed as average migratory distance (μm)±standard deviation. […]

COCCOCCOC(=O)N[C@@H](CC(C)C)C(=O)N[C@@H](Cc1ccccc1)C(=O)C(=O)NC1CC1 [compound 17, ((1S)-1-((((1S)-1-Benzyl-2,3-dioxo-3-(cyclopropylamino)propyl)amino)carbonyl)-3-methylbutyl)carbamic acid 5-methoxy-3-oxapentyl ester]
migration capability of nerve cells: the recovery of migration capability was observed
